Values of other authors in patent publication US9226984B2, “Entrapment of radionuclides in nanoparticle compositions” (Technical University of Denmark and Rigshospitalet, priority 2010, dated 2016).

Conditions: ionophore-assisted loading

Oc1cccc2cccnc12 [oxine, 8-hydroxyquinoline]
64Cu2+ retention of liposomes loaded with the ionophore: unstable liposomes
